This test concerns laccase from Trichoderma harzianum strain HZN10 (free, purified). The test can be described thus: ABTS oxidation, absorbance at […] nm. The class given is biochemical. The note with it: free enzyme; ABTS 0.2-2.4 mM; standard assay 0.1 M sodium phosphate pH 6, 25 °C.

In article PMC6296572 (Journal of Genetic Engineering & Biotechnology, 2017) one finds Km data, which are given here for one compound.

What is called Km is the concentration of substrate that gives half-maximal velocity. Regarding `CCn1c(=NN=c2sc3cc(S(=O)(=O)O)ccc3n2CC)sc2cc(S(=O)(=O)O)ccc21` [ABTS, 2,2′-azino-bis(3-ethylbenzothiazoline-6-sulfonic acid)], the Km worked out at 500 µM.
